Data on one compound can be found in US6852863B2, “Metabolites of (3-{[4-tert-butyl-benzyl)-(pyridine-3-sulfonyl)-amino]-methyl}-phenoxy)-acetic acid” (Pfizer Inc., priority 2002, dated 2005).

For data set [1], the target named is T1, rat EP2 prostaglandin E2 receptor (Rattus norvegicus, UniProt Q62928).
T1 construct: This full length receptor is used to prepare 293S cells expressing the EP2 receptor; expressed in transfected cells; membranes used in the assay
The data set is described as follows: Rat EP2 receptor binding assay (displacement of 3H-prostaglandin E2). To be noted: 293S cell membranes expressing rat EP2, 3 nM 3H-prostaglandin E2, 1 hour at 25° C. The source says:
Rat EP2 Recptor Binding Assay
Assay for Binding to Prostaglandin E2 Receptors
The full length EP2 receptor is made as disclosed in Nemoto et al., Prostaglandins and other Lipid Mediators, 1997, 54, 713-725. This full length receptor is used to prepare 293S cells expressing the EP2 receptor.
293S cells expressing the rat EP2 prostaglandin E2 receptor are generated according to methods known to those skilled in the art. Typically, PCR (polymerase chain reaction) primers corresponding to the 5′ and 3′ ends of the published full length receptor are made according to the well known methods disclosed above and are used in an RT-PCR reaction using the total RNA from rat kidney as a source. […]
Membrane Preparation: All operations are performed at 4° C. […] Pelleted membranes are resuspended to 3-10 mg protein per ml, protein concentration being determined of the method of Bradford [Bradford, M., Anal. Biochem., 72, 248 (1976)]. […]
Binding Assay: Frozen membranes prepared as above are thawed and diluted to 1 mg protein per ml in Buffer A above. […] To determine the amount of ^3H-prostaglandin bound to the membranes, the dried filters are placed into plastic bags with scintillation fluid and counted in a LKB 1205 Betaplate reader (Wallac, Gaithersburg, Md.). […]

Another data set deals with Human hepatocytes. The experiment in a line: Metabolism of parent in human hepatocytes. Format: in vitro ADME. As to conditions: 20 μM parent, 2 million cells per ml, 4 hours, 37° C.; mobile phase pH 5.0. On the procedure: Human hepatocytes were generated from a mix of 3 livers. Rat and monkey hepatocytes were generated using Sprague Dawley rats (12 livers), Cynomolgus monkey (1 liver) and Beagle dogs (2 livers). Cryopreserved hepatocytes were suspended in William's E media with 10% FBS to a viable count of 2 million cells per ml and gassed with 95/5 O2/CO2 initially and every hour of incubations. After the addition of 20 μM (3-{[4-tert-butyl-benzyl)-(pyridine-3-sulfonyl)-amino]-methyl}-phenoxy)-acetic acid to a 25 ml Erlenmeyer flask, 2.5 ml of hepatocytes suspension was added and incubated for 4 hours at 37° C. in a shaking water bath.
Metabolite quantification was performed by measuring the areas of individually separated HPLC peaks using the β-RAM (IN/US, Win-flow). The β-RAM provided integrated peak representation printouts in CPM as well as the percentage of the radiolabeled material. The β-RAM was operated using a solid scintillation cell. […]
Identification of the metabolites was performed using a Finnigan TSQ 7000 triple quadrupole mass spectrometer equipped with an API-2 electrospray interface. […] The β-RAM response was recorded as a real time analog signal by the MS data collection system. The collected data from the radioactivity and MS detectors were separated by the dwell volume of flow from the MS to the radioactivity detector (corresponding to a dwell time of about 0.2 min.). […]

T1 sequence (Q62928 whole entry): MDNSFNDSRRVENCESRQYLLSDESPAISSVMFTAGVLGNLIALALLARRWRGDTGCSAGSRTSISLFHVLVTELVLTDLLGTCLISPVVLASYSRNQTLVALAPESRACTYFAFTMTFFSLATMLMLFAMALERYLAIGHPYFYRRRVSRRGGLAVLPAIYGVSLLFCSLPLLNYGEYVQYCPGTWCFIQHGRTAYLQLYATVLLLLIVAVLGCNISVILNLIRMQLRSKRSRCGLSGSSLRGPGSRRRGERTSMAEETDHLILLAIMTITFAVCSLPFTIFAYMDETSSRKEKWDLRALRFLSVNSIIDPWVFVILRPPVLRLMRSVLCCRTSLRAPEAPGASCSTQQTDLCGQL

Turning to `CC(C)(CO)c1ccc(CN(Cc2cccc(OCC(=O)O)c2)S(=O)(=O)c2cccnc2)cc1` [Metabolite M4, (3-{[[4-(2-hydroxy-1,1-dimethyl-ethyl)-benzyl]-(pyridine-3-sulfonyl)-amino]-methyl}-phenoxy)-acetic acid], in data set [1], the IC50 was 170 nM. The “Percent of Radioactivity, Human hepatocytes” value in the data set on Human hepatocytes turned out to be 41.2%.
